Experimental findings from ChEMBL document CHEMBL5149970 (J Med Chem, 2021) are described below.

Data set [1] is described as follows: Antiproliferative activity against human EU-3 cells assessed as reduction in cell survival incubated for 48 hrs by WST assay. The class given is functional, cell-based. The note with it: EU-3, 48 h.
In data set [2] the test system is EU-1. Kind of data set: Inhibition of MDM2/XIAP IRES mRNA interaction in human EU-1 cells assessed as increase in p53 protein expression at 1 uM measured after 2 to 24 hrs by western blot analysis. The class given is cell-based. The conditions noted are these: time 2-24 hrs. (Immunoblotting shows a protein as a band on a membrane.)
Data set [3] relates to EU-1. Put plainly: Inhibition of MDM2/XIAP IRES mRNA interaction in human EU-1 cells assessed as increase in p21 protein expression at 1 uM measured after 8 hrs by western blot analysis. The class given is cell-based.
The test system of data set [4] is EU-1. Put plainly: Inhibition of MDM2/XIAP IRES mRNA interaction in human EU-1 cells assessed as increase in caspase-9 cleavage at 1 uM measured after 8 hrs by western blot analysis. It is filed as cell-based.
Data set [5] deals with EU-1. Put plainly: Inhibition of MDM2/XIAP IRES mRNA interaction in human EU-1 cells assessed as fold change in p53 protein expression at 1 uM measured after 120 mins by CHX chase assay (reference value: 0.08). The class given is cell-based.
Data set [6] in a line: AUC in Sprague-Dawley rat at 25 mg/kg, po measured for 24 hrs by LC-MS/MS analysis. It is filed as ADME, organism-based. On the set-up: time 24 hrs, dose 25 mg/kg, route po. The conditions noted are these: in vivo.
For data set [7], the system named is EU-1. Put plainly: Inhibition of MDM2/XIAP IRES mRNA interaction in human EU-1 cells assessed as induction of MDM2 degradation by measuring fold change in MDM2 protein expression at 1 uM measured after 30 mins by CHX chase assay (reference value: 0.92). It is filed as cell-based.
Data set [8] is described as follows: Antiproliferative activity against human NB-1643 cells assessed as reduction in cell survival incubated for 48 hrs by WST assay. The conditions noted are these: NB-1643, 48 h. It is filed as functional, cell-based.
The subject of data set [9] is EU-1. Kind of data set: Inhibition of MDM2/XIAP IRES mRNA interaction in human EU-1 cells assessed as fold change in p53 protein expression at 1 uM measured after 90 mins by CHX chase assay (reference value: 0.13). The class given is cell-based.
Data set [10] has as its system EU-1. Put plainly: Inhibition of MDM2/XIAP IRES mRNA interaction in human EU-1 cells assessed as induction of MDM2 degradation by measuring downregulation of MDM2 protein expression at 1 uM measured after 8 hrs by western blot analysis. It is filed as cell-based.

Calls of active or inactive are those of the source. The rule behind the calls is not given here.

As usually defined, the IC50 is the point on the concentration scale where inhibition reaches its midpoint. As usually defined, the AUC is concentration integrated over time. Read a high AUC as more exposure. `Cc1ccc(NS(=O)(=O)c2ccc3c(c2)C2OCCC2C(c2ccc(C(=O)C(C)C)cc2)N3)cc1C` (stereo not given): the figures for the IC50 in [1] and in data set [8] were 300 nM and 500 nM, respectively. Also, the inhibition result with EU-1 [2], with EU-1 [3], in the data set on EU-1 [4] and with EU-1 [10] was “Active” in each case. Besides, the fold change (FC) with EU-1 [5] came out at 1.14; with EU-1 [7] it was 0.78; in the data set on EU-1 [9] it was 1.15. The exposure (AUC) in [6] came out at 0.71 µg·h/mL.
